Results on one compound are retold here after publication PMC5218480 (PLoS ONE, 2017).

The subject of the assay is MV-4-11 cells. The experiment in a line: Gene expression microarray analysis (Affymetrix PrimeView) and GSEA. As to conditions: ProbeSet 11726703_a_at; LIST B. Also noted: RFU PODN (11730768_x_at) / Fold change /veh PODN (11730768_x_at) / RFU LINC00158 (11744669_a_at) / Fold change /veh LINC00158 (11744669_a_at) / RFU DUSP10 (11751237_a_at) / Fold change /veh DUSP10 (11751237_a_at) / RFU ID3 (11757404_x_at) / Fold change /veh ID3 (11757404_x_at) / RFU PLEKHG5 (11737974_s_at) / Fold change /veh PLEKHG5 (11737974_s_at) / RFU LRRC4B (11730491_at) / Fold change /veh LRRC4B (11730491_at) / RFU GIMAP4 (11747438_a_at) / Fold change /veh GIMAP4 (11747438_a_at) / RFU KRT8 (11758183_x_at) / Fold change /veh KRT8 (11758183_x_at) / RFU CNN1 (11734310_a_at) / Fold change /veh CNN1 (11734310_a_at) / RFU VPS37D (11726825_at) / Fold change /veh VPS37D (11726825_at) / RFU C10orf10 (11716522_x_at) / Fold change /veh C10orf10 (11716522_x_at) / RFU KIR2DL2 /// KIR2DL4 /// KIR2DL5A /// KIR2DL5B /// KIR2DS1 /// KIR2DS2 /// KIR2DS3 /// KIR2DS4 /// KIR3DL3 /// KIR3DL3 /// KIR3DS1 (11738374_at) / Fold change /veh KIR2DL2 /// KIR2DL4 /// KIR2DL5A /// KIR2DL5B /// KIR2DS1 /// KIR2DS2 /// KIR2DS3 /// KIR2DS4 /// KIR3DL3 /// KIR3DL3 /// KIR3DS1 (11738374_at) / RFU C1QL1 (11718748_at) / Fold change /veh C1QL1 (11718748_at) / RFU TMPRSS4 (11747572_a_at) / Fold change /veh TMPRSS4 (11747572_a_at) / RFU HAMP (11756126_x_at) / Fold change /veh HAMP (11756126_x_at) / RFU RNFT2 (11725882_a_at) / Fold change /veh RNFT2 (11725882_a_at) / RFU NR4A2 (11747474_a_at) / Fold change /veh NR4A2 (11747474_a_at) / RFU ABCC12 (11746883_a_at) / Fold change /veh ABCC12 (11746883_a_at) / RFU TMEM136 (11760407_x_at) / Fold change /veh TMEM136 (11760407_x_at) / RFU CLDN22 /// WWC2 (11732394_at) / Fold change /veh CLDN22 /// WWC2 (11732394_at) / RFU HLA-DPB1 (11760878_x_at) / Fold change /veh HLA-DPB1 (11760878_x_at) / RFU SPINT1 (11716480_a_at) / Fold change /veh SPINT1 (11716480_a_at) / RFU GAP43 (11754022_s_at) / Fold change /veh GAP43 (11754022_s_at) / RFU A4GNT (11735810_at) / Fold change /veh A4GNT (11735810_at) / RFU PRB3 (11715151_x_at) / Fold change /veh PRB3 (11715151_x_at) / RFU TUBB4B (11761932_at) / Fold change /veh TUBB4B (11761932_at) / RFU CAPN14 (11732068_a_at) / Fold change /veh CAPN14 (11732068_a_at) / RFU TMCC2 (11721928_a_at) / Fold change /veh TMCC2 (11721928_a_at) / RFU IRGQ (11745062_a_at) / Fold change /veh IRGQ (11745062_a_at) / RFU FAM174B (11720279_a_at) / Fold change /veh FAM174B (11720279_a_at) / RFU TMPRSS4 (11748680_a_at) / Fold change /veh TMPRSS4 (11748680_a_at) / RFU FAM212B (11763350_a_at) / Fold change /veh FAM212B (11763350_a_at) / RFU PLEKHG5 (11743358_a_at) / Fold change /veh PLEKHG5 (11743358_a_at) / RFU ZSCAN30 (11745921_a_at) / Fold change /veh ZSCAN30 (11745921_a_at) / RFU CMKLR1 (11741424_a_at) / Fold change /veh CMKLR1 (11741424_a_at) / RFU LOC101060620 /// MAPK8IP1 (11723275_at) / Fold change /veh LOC101060620 /// MAPK8IP1 (11723275_at) / RFU SPTSSB (11747773_x_at) / Fold change /veh SPTSSB (11747773_x_at) / RFU PRSS12 (11739890_at) / Fold change /veh PRSS12 (11739890_at) / RFU BIN1 (11741810_x_at) / Fold change /veh BIN1 (11741810_x_at) / RFU WNT11 (11732464_a_at) / Fold change /veh WNT11 (11732464_a_at) / RFU C10orf10 (11716521_a_at) / Fold change /veh C10orf10 (11716521_a_at) / RFU C5orf56 (11738089_at) / Fold change /veh C5orf56 (11738089_at) / RFU CYB561 (11721691_x_at) / Fold change /veh CYB561 (11721691_x_at) / RFU ANKRD19P (11752326_a_at) / Fold change /veh ANKRD19P (11752326_a_at) / RFU OR2T12 /// OR2T33 /// OR2T8 (11738714_s_at) / Fold change /veh OR2T12 /// OR2T33 /// OR2T8 (11738714_s_at) / RFU VCAN (11748164_a_at) / Fold change /veh VCAN (11748164_a_at) / RFU JSRP1 (11732532_at) / Fold change /veh JSRP1 (11732532_at) / RFU KRTAP10-11 (11738290_x_at) / Fold change /veh KRTAP10-11 (11738290_x_at) / RFU MYO3A (11730013_a_at) / Fold change /veh MYO3A (11730013_a_at) / RFU EBF3 (11725865_a_at) / Fold change /veh EBF3 (11725865_a_at) / RFU CAMK2N1 (11719241_x_at) / Fold change /veh CAMK2N1 (11719241_x_at) / RFU C5orf56 (11738088_a_at) / Fold change /veh C5orf56 (11738088_a_at) / RFU OLFML3 (11715873_a_at) / Fold change /veh OLFML3 (11715873_a_at) / RFU LOC100653217 /// NTM (11731650_a_at) / Fold change /veh LOC100653217 /// NTM (11731650_a_at) / RFU MAPK11 (11762145_a_at) / Fold change /veh MAPK11 (11762145_a_at) / RFU FIZ1 (11724087_x_at) / Fold change /veh FIZ1 (11724087_x_at) / RFU OASL (11726364_x_at) / Fold change /veh OASL (11726364_x_at) / RFU SOX15 (11748057_x_at) / Fold change /veh SOX15 (11748057_x_at) / RFU CD79A (11719716_a_at) / Fold change /veh CD79A (11719716_a_at) / RFU HIST1H1D (11736915_at) / Fold change /veh HIST1H1D (11736915_at) / RFU CASKIN2 (11723855_a_at) / Fold change /veh CASKIN2 (11723855_a_at) / RFU LOC730098 (11760151_x_at) / Fold change /veh LOC730098 (11760151_x_at) / RFU OR4N2 (11742367_at) / Fold change /veh OR4N2 (11742367_at) / RFU PRRT2 (11749266_a_at) / Fold change /veh PRRT2 (11749266_a_at) / RFU SNX32 (11753110_a_at) / Fold change /veh SNX32 (11753110_a_at) / RFU CDHR5 (11726645_a_at) / Fold change /veh CDHR5 (11726645_a_at) / RFU RCAN1 (11760418_a_at) / Fold change /veh RCAN1 (11760418_a_at) / RFU FAM167A (11723789_a_at) / Fold change /veh FAM167A (11723789_a_at) / RFU FAM26E (11764081_at) / Fold change /veh FAM26E (11764081_at) / RFU ISYNA1 (11749810_s_at) / Fold change /veh ISYNA1 (11749810_s_at) / RFU ACY1 (11761880_at) / Fold change /veh ACY1 (11761880_at) / RFU 11764098_at / Fold change /veh 11764098_at / RFU SAMD14 (11745864_x_at) / Fold change /veh SAMD14 (11745864_x_at) / RFU NPB (11741838_a_at) / Fold change /veh NPB (11741838_a_at) / RFU TMPRSS6 (11731388_a_at) / Fold change /veh TMPRSS6 (11731388_a_at) / RFU KRTAP10-2 (11738614_at) / Fold change /veh KRTAP10-2 (11738614_at) / RFU ARHGAP8 /// PRR5-ARHGAP8 (11727945_x_at) / Fold change /veh ARHGAP8 /// PRR5-ARHGAP8 (11727945_x_at) / RFU KRTAP5-7 /// NADSYN1 (11734609_at) / Fold change /veh KRTAP5-7 /// NADSYN1 (11734609_at) / RFU RASL12 (11751679_a_at) / Fold change /veh RASL12 (11751679_a_at) / RFU CDKN2B (11736163_a_at) / Fold change /veh CDKN2B (11736163_a_at) / RFU PRF1 (11729649_at) / Fold change /veh PRF1 (11729649_at) / RFU, ZNF638 /// ZNF638-IT1 / Fold change vs veh, ZNF638 /// ZNF638-IT1 / RFU, PANK3 / Fold change vs veh, PANK3 / RFU, SH3YL1 / Fold change vs veh, SH3YL1 / RFU, ZEB2 / Fold change vs veh, ZEB2 / RFU, NRIP1 / Fold change vs veh, NRIP1 / RFU, PTTG1IP / Fold change vs veh, PTTG1IP / RFU, CAPN2 / Fold change vs veh, CAPN2 / RFU, MED14 / Fold change vs veh, MED14 / RFU, SNORA58 / Fold change vs veh, SNORA58 / RFU, C1orf63 / Fold change vs veh, C1orf63 / RFU, LRRFIP1 / Fold change vs veh, LRRFIP1 / RFU, NDUFAF7 / Fold change vs veh, NDUFAF7 / RFU, SLC12A2 / Fold change vs veh, SLC12A2 / RFU, IBTK / Fold change vs veh, IBTK / RFU, ESF1 / Fold change vs veh, ESF1 / Fold change vs veh, TMEM50B / RFU, TAOK1 / Fold change vs veh, TAOK1 / RFU, ACBD3 / Fold change vs veh, ACBD3 / RFU, TMA16 / Fold change vs veh, TMA16 / RFU, RWDD3 / Fold change vs veh, RWDD3 / RFU, BCAT1 / Fold change vs veh, BCAT1 / RFU, EDEM3 / Fold change vs veh, EDEM3 / RFU, TMEM33 / Fold change vs veh, TMEM33 / RFU, WDR75 / Fold change vs veh, WDR75 / RFU, AHCTF1 / Fold change vs veh, AHCTF1 / RFU, TFRC / Fold change vs veh, TFRC / RFU, ZDHHC17 / Fold change vs veh, ZDHHC17 / RFU, NOM1 / Fold change vs veh, NOM1 / RFU, ARL8B / Fold change vs veh, ARL8B / RFU, ZBTB11 / Fold change vs veh, ZBTB11 / RFU, TAMM41 / Fold change vs veh, TAMM41 / RFU, KIAA1704 /// LOC100996395 / Fold change vs veh, KIAA1704 /// LOC100996395 / RFU, ING1 / Fold change vs veh, ING1 / RFU, TRMT61B / Fold change vs veh, TRMT61B / RFU, FUBP3 / Fold change vs veh, FUBP3 / RFU, TP53 / Fold change vs veh, TP53 / RFU, TNKS2 / Fold change vs veh, TNKS2 / RFU, ZFP14 / Fold change vs veh, ZFP14 / RFU, ACTR2 / Fold change vs veh, ACTR2 / RFU, PPP3R1 / Fold change vs veh, PPP3R1 / RFU, PIK3R1 / Fold change vs veh, PIK3R1 / RFU, HNRNPA1 / Fold change vs veh, HNRNPA1 / RFU, RNF170 / Fold change vs veh, RNF170 / RFU, ZNF28 / Fold change vs veh, ZNF28 / RFU, RNGTT / Fold change vs veh, RNGTT / RFU, OGT / Fold change vs veh, OGT / RFU, BRD1 / Fold change vs veh, BRD1 / RFU, MARS / Fold change vs veh, MARS / RFU, ZNF655 / Fold change vs veh, ZNF655 / RFU, FAHD1 / Fold change vs veh, FAHD1 / RFU, BDP1 / Fold change vs veh, BDP1 / RFU, LRRCC1 / Fold change vs veh, LRRCC1 / RFU, ARID1A / Fold change vs veh, ARID1A / RFU, ZNF146 / Fold change vs veh, ZNF146 / RFU, ZNF330 / Fold change vs veh, ZNF330 / RFU, GPN3 / Fold change vs veh, GPN3 / RFU, C9orf123 / Fold change vs veh, C9orf123 / RFU, N4BP2L2 / Fold change vs veh, N4BP2L2 / RFU, ARFIP1 / Fold change vs veh, ARFIP1 / RFU, FAM179B / Fold change vs veh, FAM179B / RFU, BCL10 / Fold change vs veh, BCL10 / RFU, UHRF1BP1L / Fold change vs veh, UHRF1BP1L / RFU, BET1 / Fold change vs veh, BET1 / RFU, CNOT2 / Fold change vs veh, CNOT2 / RFU, ZNF268 / Fold change vs veh, ZNF268 / Fold change vs veh, ZNF507 / RFU, DGCR2 / Fold change vs veh, DGCR2 / RFU, WDSUB1 / Fold change vs veh, WDSUB1 / Fold change vs veh, HSP90B1 /// MIR3652 / RFU, ADSS / Fold change vs veh, ADSS / RFU, GK / Fold change vs veh, GK / RFU, ZNF148 / Fold change vs veh, ZNF148 / RFU, TAF9 / Fold change vs veh, TAF9 / RFU, SLC1A5 / Fold change vs veh, SLC1A5 / RFU, SLMO2 / Fold change vs veh, SLMO2 / RFU, ABCC4 / Fold change vs veh, ABCC4 / RFU, LOC101060439 /// RAP1B / Fold change vs veh, LOC101060439 /// RAP1B / RFU, RFX7 / Fold change vs veh, RFX7 / RFU, GTPBP10 / Fold change vs veh, GTPBP10 / RFU, CNEP1R1 / Fold change vs veh, CNEP1R1 / RFU, BIVM-ERCC5 /// ERCC5 / Fold change vs veh, BIVM-ERCC5 /// ERCC5 / RFU, ILF3 / Fold change vs veh, ILF3 / RFU 11762660_at / Fold change /veh 11762660_at / RFU VCAN (11757783_s_at) / Fold change /veh VCAN (11757783_s_at) / RFU DDX43 (11728927_at) / Fold change /veh DDX43 (11728927_at) / RFU KRT8 (11758188_x_at) / Fold change /veh KRT8 (11758188_x_at) / RFU NKD1 (11759106_at) / Fold change /veh NKD1 (11759106_at) / RFU SRD5A1 (11742802_a_at) / Fold change /veh SRD5A1 (11742802_a_at) / RFU TPSAB1 /// TPSB2 (11721975_s_at) / Fold change /veh TPSAB1 /// TPSB2 (11721975_s_at) / RFU GSTM3 (11746129_a_at) / Fold change /veh GSTM3 (11746129_a_at) / RFU IL23R (11737362_x_at) / Fold change /veh IL23R (11737362_x_at) / RFU TMEM51 (11727254_a_at) / Fold change /veh TMEM51 (11727254_a_at) / RFU PIWIL2 (11732686_x_at) / Fold change /veh PIWIL2 (11732686_x_at) / RFU ORM1 (11744905_x_at) / Fold change /veh ORM1 (11744905_x_at) / RFU CCDC152 (11743942_at) / Fold change /veh CCDC152 (11743942_at) / RFU ECM1 (11717891_a_at) / Fold change /veh ECM1 (11717891_a_at) / RFU IL23R (11748794_a_at) / Fold change /veh IL23R (11748794_a_at) / RFU TNFAIP8L3 (11732012_x_at) / Fold change /veh TNFAIP8L3 (11732012_x_at) / RFU MBOAT4 (11741988_at) / Fold change /veh MBOAT4 (11741988_at) / RFU 11764193_at / Fold change /veh 11764193_at / RFU TMEM53 (11763286_at) / Fold change /veh TMEM53 (11763286_at) / RFU MAGEB2 (11727129_at) / Fold change /veh MAGEB2 (11727129_at) / RFU TMEM200A (11744735_a_at) / Fold change /veh TMEM200A (11744735_a_at) / RFU CCDC152 (11751479_a_at) / Fold change /veh CCDC152 (11751479_a_at) / RFU FAM211A (11726209_a_at) / Fold change /veh FAM211A (11726209_a_at) / RFU RGS16 (11746705_a_at) / Fold change /veh RGS16 (11746705_a_at) / RFU VCAN (11755009_s_at) / Fold change /veh VCAN (11755009_s_at) / RFU RHOB (11743442_s_at) / Fold change /veh RHOB (11743442_s_at) / RFU RGS16 (11720943_a_at) / Fold change /veh RGS16 (11720943_a_at) / RFU RGS16 (11720944_at) / Fold change /veh RGS16 (11720944_at) / RFU, VPS4B / Fold change vs veh, VPS4B / RFU, CREB1 / Fold change vs veh, CREB1 / RFU, DNAJC13 / Fold change vs veh, DNAJC13 / RFU, GNAQ / Fold change vs veh, GNAQ / RFU, CDK5R1 / Fold change vs veh, CDK5R1 / RFU, ZRANB3 / Fold change vs veh, ZRANB3 / RFU, CUL4A / Fold change vs veh, CUL4A / RFU, CCNY / Fold change vs veh, CCNY / RFU, UFL1 / Fold change vs veh, UFL1 / RFU, COG3 / Fold change vs veh, COG3 / RFU, DIAPH2 / Fold change vs veh, DIAPH2 / RFU, SKA2 / Fold change vs veh, SKA2 / RFU, AFF3 / Fold change vs veh, AFF3 / RFU, LMF1 / Fold change vs veh, LMF1 / RFU, IPO11 / Fold change vs veh, IPO11 / RFU, DFFB / Fold change vs veh, DFFB / RFU, FOXP1 / Fold change vs veh, FOXP1 / RFU, CARD8 / Fold change vs veh, CARD8 / RFU, STRN3 / Fold change vs veh, STRN3 / RFU, ADK / Fold change vs veh, ADK / RFU, RASSF2 / Fold change vs veh, RASSF2 / RFU, WIPF1 / Fold change vs veh, WIPF1 / RFU, LARP1B / Fold change vs veh, LARP1B / RFU, RASA1 / Fold change vs veh, RASA1 / RFU, RB1 / Fold change vs veh, RB1 / RFU, PPFIA1 / Fold change vs veh, PPFIA1 / RFU, MAT2A / Fold change vs veh, MAT2A / RFU, CCT5 / Fold change vs veh, CCT5 / RFU, WDR92 / Fold change vs veh, WDR92 / RFU, CUX1 / Fold change vs veh, CUX1 / RFU, TTC7A / Fold change vs veh, TTC7A / RFU, TMEM135 / Fold change vs veh, TMEM135 / RFU, DEPTOR / Fold change vs veh, DEPTOR / RFU, CPM / Fold change vs veh, CPM / RFU, DNAJB6 / Fold change vs veh, DNAJB6 / RFU, CACNA2D3 / Fold change vs veh, CACNA2D3 / RFU, DTX4 / Fold change vs veh, DTX4 / RFU, TFCP2 / Fold change vs veh, TFCP2 / RFU, GMCL1 /// GMCL1P1 / Fold change vs veh, GMCL1 /// GMCL1P1 / RFU, AEBP2 / Fold change vs veh, AEBP2 / RFU, SNHG1 /// SNORD22 /// SNORD25 /// SNORD26 /// SNORD27 /// SNORD28 /// SNORD29 /// SNORD31 / Fold change vs veh, SNHG1 /// SNORD22 /// SNORD25 /// SNORD26 /// SNORD27 /// SNORD28 /// SNORD29 /// SNORD31 / Fold change (Aza/veh), C12orf56 (ProbeSet 11735607_a_at) / Fold change (ACY-1035/veh), C12orf56 (ProbeSet 11735607_a_at) / Fold change (Aza/veh), FGFR1OP (ProbeSet 11751329_s_at) / Fold change (ACY-1035/veh), FGFR1OP (ProbeSet 11751329_s_at) / Fold change (Aza/veh), VPS36 (ProbeSet 11739960_a_at) / Fold change (ACY-1035/veh), VPS36 (ProbeSet 11739960_a_at) / RFU SYPL1 (11715823_x_at) / Fold change /veh SYPL1 (11715823_x_at) / RFU IGFBP7 (11715501_s_at) / Fold change /veh IGFBP7 (11715501_s_at) / RFU REEP3 (11722064_at) / Fold change /veh REEP3 (11722064_at) / RFU IGLL1 (11728026_x_at) / Fold change /veh IGLL1 (11728026_x_at): dose or concentration left out as unconfirmed. Format: cell-based, human.

For the compound `Nc1ccc(-c2cccs2)cc1NC(=O)c1ccc2c(c1)cc(C1CC1)n2CCN1CCOCC1` [ACY-1035], the “Fold change vs veh, BCL10” value turned out to be 0.84.
